The values below are quoted from earlier work in patent US20040191345A1, “New formulations and use thereof” (priority 2003, published 2004).

For data set [1] the following is noted: at room temperature.
For data set [2] the following is noted: n-octanol / phosphate buffer at pH 7.32.

Turning to `Cc1ccc(O)c(C(CCN(C(C)C)C(C)C)c2ccccc2)c1` (stereo not drawn) [Tolterodine, N,N-diiso-propyl-3-(2-hydroxy-5-methylphenyl)-3-phenylpropanamine], the pKa value is on record as 9.87. Besides, the solubility in water entry in data set [1] is listed as “about 11 mg/ml”. The “partition coefficient (Log P)” value in data set [2] is 1.83.
